Counter-ions that a name gives are not always drawn. Like-named read-outs stand apart in the source and are kept apart here.
Tested on: MYB mRNA
Experiment: Splicing RT-qPCR assay, MYB canonical (CJ) and alternative (AJ) junction mRNA
Format: cell-based, human
Conditions: for IC50: canonical junction mRNA; for AC50: alternative junction mRNA, read-out: MYB AJ (AC50, increase in AJ mRNA)
Outline: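 Read-out: one-step RT-qPCR on crude lysates measuring exon-exon junction isoforms, CJ for the canonical transcript and AJ for compound-induced exon inclusion. Normalization used PPIA for adherent A673 and GAPDH or GUSB for K562. Cells received 11 doses, 3-fold apart, top 10 uM, for 24 h.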

[1] = Homo sapiens, qPCR panel, read-out: MYB CJ (decrease in CJ mRNA levels, IC50)
[2] = Homo sapiens, RT-qPCR, A673 or K562 cells, 24 hours treatment
[3] = Homo sapiens, RT-qPCR, A673 or K562 cells, 24 hours treatment, read-out: MYB CJ (IC50, decrease in CJ mRNA)

IC50 [1] [nM] | IC50 [3] [nM] | IC50 (RT-qPCR, A673 or K562 cells, 24 hours treatment, read-out: MYB CJ (IC50, decrease in CJ mRNA)) [nM] | IC50 (qPCR panel, read-out: MYB CJ (decrease in CJ mRNA levels, IC50)) [nM] | SMILES | AC50 [2] [nM] | AC50 (RT-qPCR, A673 or K562 cells, 24 hours treatment) [nM]
100 to 1000 | 100 to 1000 |  |  | C[C@@H]1CN(c2cnc3nc(-c4cc(F)c5nn(C)cc5c4)cc(Cl)c3c2)C[C@@H](C)N1 [Compound 251] | 100 to 1000 | 
< 100 | < 100 |  |  | CN[C@@H]1CCN(c2cnc3nc(-c4cc(F)c5nc(C)cn5c4)ncc3c2)C1 [Compound 202, (3R)-1-(2-{8-fluoro-2-methylimidazo[1,2-a]pyridin-6-yl}pyrido[2,3-d]pyrimidin-6-yl)-N-methylpyrrolidin-3-amine] | 100 to 1000 | 
< 100 | < 100 |  |  | CNC1CCN(c2cnc3nc(-c4cc5cn(C)nc5c(C)c4O)cc(Cl)c3n2)C1 (stereo not drawn) [Compound 193, 5-{8-chloro-2-[3-(methylamino)355pyrrolidine-1-yl]pyrido[2,3-b]pyrazin-6-yl}-2,7-dimethylindazol-6-ol] | < 100 | 
< 100 | < 100 |  |  | COc1nc(-c2cc3cn(C)nc3c(F)c2O)nc2ncc(N3C[C@@H](C)N[C@@H](C)C3)cc12 [Compound 218] | < 100 | 
< 100 | < 100 |  |  | COc1nc(-c2cc3cn(C)nc3c(F)c2O)nc2ncc(N3CCC(N(C)C)CC3)cc12 [Compound 219, 5-{6-[4-(dimethylamino)piperidin-1-yl]-4-methoxypyrido[2,3-d]pyrimidin-2-yl}-7-fluoro-2-methylindazol-6-ol] | < 100 | 
< 100 | < 100 |  |  | Cc1nc2c(C)c(O)c(-c3cnc4cc(N5CCC(NC6CC6)C5)ccc4n3)cc2o1 (stereo not drawn) [Compound 182, 6-[6-[3-(cyclopropylamino)pyrrolidin-1-yl]quinoxalin-2-yl]-2,4-dimethyl-1,3-benzoxazol-5-ol] | < 100 | 
< 100 | < 100 |  |  | Cn1cc2cc(-c3cnc4cc(N5CCC(NC6CC6)C5)ccc4n3)c(O)c(F)c2n1 (stereo not drawn) [Compound 175, 5-[6-[3-(cyclopropylamino)pyrrolidin-1-yl]quinoxalin-2-yl]-7-fluoro-2-methyl-indazol-6-ol] | < 100 | 
< 100 | < 100 |  |  | CN(C)[C@@H]1CCN(c2cnc3nc(-c4cc5cn(C)nc5c(F)c4O)cc(Cl)c3c2)C1 [Compound 220] | < 100 | 
< 100 | < 100 |  |  | CNC1CCN(c2cnc3nc(-c4cc5cn(C)nc5cc4O)cc(Cl)c3c2)C1 (stereo not drawn) [Compound 213, 5-{4-chloro-6-[3-(methylamino)370pyrrolidine-1-yl]-1,8-naphthyridin-2-yl}-2-methylindazol-6-ol] | < 100 | 
< 100 | < 100 |  |  | Cn1cc2cc(-c3cc(Cl)c4cc(N5CCNCC5)cnc4n3)c(O)cc2n1 [Compound 102, 5-[4-chloro-6-(piperazin-1-yl)-1,8-naphthyridin-2-yl]-2-methylindazol-6-ol] | < 100 | 
100 to 1000 | 100 to 1000 |  |  | C[C@@H]1CN(c2cnc3nc(-c4cc5cn(C)nc5cc4O)cc(Cl)c3c2)C[C@@H](C)N1 [Compound 243, 5-{4-chloro-6-[(3R,5R)-3,5-dimethylpiperazin-1-yl]-1,8-naphthyridin-2-yl}-2-methylindazol-6-ol hydrochloride] | 100 to 1000 | 
< 100 | < 100 |  |  | C[C@@H]1CN(c2cnc3nc(-c4cc5cn(C)nc5c(F)c4O)ccc3c2)C[C@H](C)N1 [Compound 206] | < 100 | 
< 100 | < 100 |  |  | CN(C)[C@H]1CCN(c2cnc3nc(-c4cc5cn(C)nc5c(F)c4O)cc(Cl)c3c2)C1 [Compound 221] | < 100 | 
1000 to 10000 | 1000 to 10000 |  |  | CNC1CCN(c2cnc3nc(-c4cc5cn(C)nc5c(C)c4O)cc(OC)c3n2)C1 (stereo not drawn) [Compound 194, 5-{8-methoxy-2-[3-(methylamino)360pyrrolidine-1-yl]pyrido[2,3-b]pyrazin-6-yl}-2,7-dimethylindazol-6-ol] | 1000 to 10000 | 
 |  | < 100 | < 100 | Cc1c(O)c(-c2cc(Cl)c3cc(N4C[C@@H](C)N[C@@H](C)C4)cnc3n2)cc2cn(C)nc12 [Compound 207, 5-{4-chloro-6-[(3R,5S)-3,5-dimethylpiperazin-1-yl]-1,8-naphthyridin-2-yl}-2,7-dimethylindazol-6-ol] |  | < 100
100 to 1000 | 100 to 1000 |  |  | CC1CN(c2cnc3nc(-c4cc(F)c5nn(C)cc5c4)cc(Cl)c3c2)CCN1 (stereo not drawn) [Compound 203, 4-chloro-2-(7-fluoro-2-methyl-2H-indazol-5-yl)-6-(3-methylpiperazin-1-yl)-1,8-naphthyridine 2,2,2-trifluoroacetate] | < 100 | 
< 100 | 1000 to 10000 |  |  | Cc1c(O)c(-c2cc(-c3nnc[nH]3)c3cc(N4C[C@@H](C)N[C@@H](C)C4)cnc3n2)cc2cn(C)nc12 [Compound 261, 5-{6-[(3R,5S)-3,5-dimethylpiperazin-1-yl]-4-(4H-1,2,4-triazol-3-yl)-1,8-naphthyridin-2-yl}-2,7-dimethylindazol-6-ol] | > 10000 | 

IC50 [1] [nM] | IC50 [3] [nM] | IC50 (RT-qPCR, A673 or K562 cells, 24 hours treatment, read-out: MYB CJ (IC50, decrease in CJ mRNA)) [nM] | IC50 (qPCR panel, read-out: MYB CJ (decrease in CJ mRNA levels, IC50)) [nM] | SMILES | AC50 [2] [nM] | AC50 (RT-qPCR, A673 or K562 cells, 24 hours treatment) [nM]
< 100 | 100 to 1000 |  |  | Cc1c(O)c(-c2ccc3nc(N4CCC(N(C)C)CC4)cnc3n2)cc2cn(C)nc12 [Compound 198] | 100 to 1000 | 
100 to 1000 | 100 to 1000 |  |  | C[C@@H]1CN(c2cnc3nc(-c4cc(F)c5nn(C)cc5c4)cc(Cl)c3c2)C[C@H](C)N1 [Compound 215] | 100 to 1000 | 
< 100 | < 100 |  |  | Cn1cc2cc(-c3cnc4cc(N5CC[C@@H](NC6CC6)C5)ccc4n3)c(O)c(F)c2n1 [Compound 177, 5-[6-[(3R)-3-(cyclopropylamino)318quinoxaline-1-yl]318quinoxaline-2-yl]-7-fluoro-2-methyl-indazol-6-ol] | < 100 | 
100 to 1000 | 100 to 1000 |  |  | Cn1cc2cc(-c3cnc4nc(N5CCNCC5)cc(Cl)c4c3)cc(F)c2n1 [Compound 101, 4-chloro-6-(7-fluoro-2-methyl-2H-indazol-5-yl)-2-(piperazin-1-yl)-1,8-naphthyridine] | < 100 | 
100 to 1000 | 100 to 1000 |  |  | Cn1cc2cc(-c3cc(Cl)c4cc(N5CCNC(C6CC6)C5)cnc4n3)cc(F)c2n1 (stereo not drawn) [Compound 209, 4-chloro-6-(3-cyclopropylpiperazin-1-yl)-2-(7-fluoro-2-methylindazol-5-yl)-1,8-naphthyridine] | 100 to 1000 | 
100 to 1000 | 100 to 1000 |  |  | Cc1c(O)c(-c2cc(Cl)c3cc(N(C)C4CCNC4)cnc3n2)cc2cn(C)nc12 (stereo not drawn) [Compound 204, 5-[4-chloro-6-(367pyrrolidine-3-ylamino)-1,8-naphthyridin-2-yl]-2,7-dimethylindazol-6-ol] | 100 to 1000 | 
< 100 | > 10000 |  |  | Cc1cn2cc(-c3cnc4nc(C5CCNCC5)ccc4c3)cc(C)c2n1 [Compound 201] | > 10000 | 
< 100 | < 100 |  |  | Cn1cc2cc(-c3cnc4nc(N5CCC(NC6CC6)C5)ccc4n3)c(O)c(F)c2n1 (stereo not drawn) [Compound 178, 5-[6-[3-(cyclopropylamino)pyrrolidin-1-yl]pyrido[2,3-b]pyrazin-2-yl]-7-fluoro-2-methyl-indazol-6-ol] | 100 to 1000 | 
< 100 | < 100 |  |  | Cc1c(O)c(-c2ncc3cc(N4CC[C@@H](N)C4)cnc3n2)cc2cn(C)nc12 [Compound 159, (R)-5-(6-(3-aminopyrrolidin-1-yl)pyrido[2,3-d]pyrimidin-2-yl)-2,7-dimethyl-2H-indazol-6-ol 2,2,2-trifluoroacetate] | < 100 | 
100 to 1000 | 100 to 1000 |  |  | COc1nc(-c2cc3cn(C)nc3c(C)c2O)nc2ncc(N3CCC(N(C)C)CC3)cc12 [Compound 163, 5-{6-[4-(dimethylamino)piperidin-1-yl]-4-methoxypyrido[2,3-d]pyrimidin-2-yl}-2,7-dimethylindazol-6-ol] | 100 to 1000 | 
< 100 | < 100 |  |  | C[C@H]1CN(c2cnc3nc(-c4cc5cn(C)nc5cc4O)cc(Cl)c3c2)C[C@H](C)N1 [Compound 242] | < 100 | 
< 100 | < 100 |  |  | C[C@@H]1CN(c2cnc3nc(-c4cc5cn(C)nc5c(F)c4O)cc(C#N)c3c2)C[C@H](C)N1 [Compound 266, 6-[(3R,5S)-3,5-dimethylpiperazin-1-yl]-2-(7-fluoro-6-hydroxy-2-methylindazol-5-yl)-1,8-naphthyridine-4-carbonitrile hydrochloride] | 100 to 1000 | 
< 100 | < 100 |  |  | Cn1cc2cc(-c3cc(Cl)c4cc(N5CCNCC5)cnc4n3)cc(F)c2n1 [Compound 103] | < 100 | 
< 100 | < 100 |  |  | CN[C@@H]1CCN(c2cnc3nc(-c4cc5cn(C)nc5c(F)c4O)cc(Cl)c3c2)C1 [Compound 271] | < 100 | 
< 100 | < 100 |  |  | C[C@@H]1CN(c2cnc3nc(-c4cc5cn(C)nc5cc4O)cc(Cl)c3c2)C[C@H](C)N1 [Compound 208] | < 100 | 
< 100 | < 100 |  |  | CNC1CCN(c2cnc3nc(-c4cc5cn(C)nc5c(C)c4O)nc(OC)c3c2)C1 (stereo not drawn) [Compound 161, 5-{4-methoxy-6-[3-(methylamino)pyrrolidin-1-yl]pyrido[2,3-d]pyrimidin-2-yl}-2,7-dimethylindazol-6-ol] | < 100 | 

— patent US20250326748A1, “COMPOUNDS AND METHODS FOR MODULATING SPLICING” (REMIX THERAPEUTICS INC., priority 2022, published 2025)
